Consider six compounds from patent US6071884A, “Pharmaceutical compositions and therapeutic methods” (Kirin Beer Kabushiki Kaisha, priority 1992, dated 2000).

For assay [1], the system named is marrow cells (mononuclear cell fraction). As to the kind of experiment: Proliferation-stimulating effect on marrow cell of mouse (3H-TdR uptake). Format: cell-based, mouse (BALB/c). The note with it: percentage of control, 72 h; for activity at 0.1 µg/mL: 10^-1 μg/ml; for activity at 0.01 µg/mL: 10^-2 μg/ml; for activity at 0.001 µg/mL: 10^-3 μg/ml; for activity at 1 µg/mL: 10^0 μg/ml. As to the method: Pharmacological Test 1: Proliferation-Stimulating Effect on Marrow Cell of Mouse
Marrow cells were prepared from the thigh bone of a 7 week old female BALB/c mouse purchased from Japan SLC Co., Ltd., and a mononuclear cell fraction (MNF) obtained by fractionation using a lympholyte-M (Cedar Lane, Ontario, Canada) was used in the following experiment.
The concentration of the MNF was adjusted to 1.5×10^6 cells/ml by using 10% FCS RPMI 1640 (Nissui Pharmaceutical Co., Ltd., Tokyo, Japan) as a culture medium. 10 μl/well of a sample with a predetermined concentration and 100 μl/well of the above-prepared MNF were placed on a round-bottomed 96 well plate, and incubated under the conditions of 37° C. and 5% CO2 for 72 hours. Thereafter, 0.5 μCi/well of ^3 H-thymidine (^3 H-TDR) was added. After 8 hour incubation, the cells were harvested, and the amount of the 3H-TdR taken in the nuclei was measured by a liquid scintillation counter.

Assay [2] deals with mononuclear cell fraction of human umbilical cord blood. The assay is described as follows: Proliferation-stimulating effect on mononuclear cell fraction of human umbilical cord blood (3H-TdR uptake). Format: cell-based. The note with it: 96 h, percentage of control, 4 days. An excerpt: Pharmacological Test 3: Proliferation-Stimulating Effect on Mononuclear Cell Fraction of Human Umbilical Cord Blood
It is extremely difficult to obtain human marrow cells. In addition, human umbilical cord blood contains stem cells (Nakahata, T. & Ogwa, M., J. Clin. Inveet. 70, 1324-1328 (1982)), so that it can be a good source of hematopoietic stem/progenitor cell supply (H. E. Broxneyer et al, Proc. Natl. Acad. Sci. USA, 86, 3828-3832 (1989)). For these reasons, the effect on human was examined by using, instead of human marrow cells, human umbilical cord blood.
To human umbilical cord blood was added an equal amount of RPMI 1640. This was placed on a Lymphoprep and centrifugal. The mononuclear cell fraction (MNF) thus obtained was used in the following experiment.
The concentration of the MNF was adjusted to 1×10^6 cells/ml by using an RPMI 1640 added with 10% auto-blood plasma as a culture medium. 10 μl/well of a sample with a predetermined concentration and 100 μl/well of the above-prepared MNF were placed on a round-bottomed 96 well plate and incubated under the conditions of 37° C. and 5% CO2 for 4 days. Thereafter, 0.5 μCi/well of ^3 H-TdR was added. After 8 hour incubation, the cells were harvested, and the amount of the 3H-TdR taken in the nuclei was measured by a liquid scintillation counter.

Assay [3] is described as follows: Life-span-increasing effect on irradiation of a lethal dose of radiation. The class given is in vivo, mouse (BDF1). The note with it: 10 mice/group, 9 Gy X-ray, 0.1 mg/kg i.v. days 0, 4, 8. As to the method:
Pharmacological Test 4: Life-Span-Increasing Effect on Irradiation of a Lethal Dose of Radiation
An experiment was carried out by using 6 week old female BDF1 mice purchased from Japan SLC Co., Ltd., with 10 mice made one group.
The entire bodies of the entire body of the mice were irradiated with 9 Gy of X-rays by using a Hitachi X-ray irradiator (MBR-1520R), and the day on which the X-ray was irradiated was referred to as "day 0".

Assay [4] concerns blood platelets. The assay is described as follows: Thrombocytopenia-inhibiting effect in X-ray-irradiated mice. Format: in vivo, mouse (BDF1). The note with it: 10 days after 5 Gy X-ray; 0.1 mg/kg i.v. within 2 h; mean ± SD; vehicle per series 10.3, 6.8, 6.7; non-treatment 68.2, 96.9, 73.0. On the procedure:
Pharmacological Test 5: Thromboclytopenia-Inhibiting Effect
The thrombocytopenia-inhibiting effect of each sample upon an X-ray-irradiated mouser which is one of models with a decreased number of blood platelets was examined.
An experiment was carried out by using 6 week old female BDF1 mice purchased from Japan SLC Co., Ltd., with 6 mice made one group.
5 Gy of X ray was irradiated to the entire body of the mice by a Hitachi X-ray irradiator CMBR-1520R). Within 2 hours after the irradiation, each sample was administered to the caudal vein of the mice at an amount of 0.1 mg/kg.
After 10 days, blood was collected from the fundus vein of the mice, and the number of blood platelets was measured by a sequential multi-channel hemocytometer E-2500/cs (Toa Iyo Denshi Kabushiki Kaisha). The number of blood platelets of the non-treated group, that of the medium-administered group, and that of the sample-administered group are shown in Table 5.

For assay [5], the system named is blood platelets. The assay is described as follows: Blood-platelet-increasing effect upon normal mouse. The note with it: normal mice; 6 days after 0.1 mg/kg i.v.; mean ± SD; vehicle per series 58.2, 63.0, 71.1. Format: in vivo, mouse (BDF1). On the procedure: Pharmacological Test 6: Blood-Platelet-Increasing Effect upon Mouse
An experiment was carried out by using 6 week old female BDF1 mice purchased from Japan SLC Co., Ltd., with 5 mice made one group.
Each sample was administered to the caudal vein of the mice at a dose of 0.1 mg/kg. After 6 days, blood was collected from the fundus vein of the mice, and the number of blood platelets was measured by a sequential multi-channel hemocytometer E-2500/cs (Toa Iyo Denshi Kabushiki Kaisha). The number of blood platelets of the vehicle-administered group, and that of the sample-administered group are shown in Table 6.

Where [6] appears, read: day 10, controls per series 10, 10, 10, 10, 10, 8.
Setting [7] is: day 15, controls per series 8, 9, 5, 5, 7, 1.
Where [8] appears, read: day 20, controls per series 4, 5, 1, 2, 3, 0.
The mark [9] stands for this setting: day 25, controls per series 3, 3, 0, 0, 2, 0.
Where [10] appears, read: day 30, controls per series 1, 1, 0, 0, 0, 0.

Turning to `CCCCCCCCCCCCCCCCCCCCCC[C@@H](O)C(=O)N[C@@H](CO[C@H]1O[C@H](CO)[C@H](O)[C@H](O)[C@H]1O)[C@H](O)CCCCCCCCCCCCCCC` [Compound 14, (2S,3R)-1-(α-D-galactopyranosyloxy)-2-[(R)-2-hydroxytetracosanoylamino]-3-octadecanol], the activity at 0.1 µg/mL was found to be 511% in assay [1] and 233% in assay [2] (10^-1 μg/ml). The activity at 0.01 µg/mL worked out at 132% in assay [1] and 141% in assay [2] (10^-2 μg/ml). Besides, the activity at 0.001 µg/mL in assay [1] was 134%; in assay [2] (10^-3 μg/ml), 96%. Moreover, the “Number of Surviving Mice” value is given as 10 mice in assay [3] (setting [6]); 10 mice in assay [3] (setting [7]); 10 mice in assay [3] (setting [8]); 9 mice in assay [3] (setting [9]); 9 mice in assay [3] (setting [10]); 9 mice in assay [3] (day 35, all controls 0). The “Number of Surviving Mice” value in assay [3] (day 40, all controls 0) was determined as 9 mice. For the same compound, the “Number of Blood Platelets” value in assay [4] is given as 22.3 ± 6.6 × 10^4 /μl; in assay [5] it was 101.6 ± 8.3 × 10^4 /μl.

Turning to `CCCCCCCCCCCCCCCCCCCCCCCC[C@@H](O)C(=O)N[C@@H](CO[C@H]1O[C@H](CO)[C@H](O)[C@H](O)[C@H]1O)[C@H](O)[C@H](O)CCCCCCCCCCCCCCC` [Compound 26, (2S,3S,4R)-1-(α-D-galactopyranosyloxy)-2-[(R)-2-hydroxyhexacosanoylamino]-3,4-nonadecanediol], in assay [1], the activity at 0.1 µg/mL is 271%. The activity at 0.01 µg/mL in assay [1] was found to be 183%. Also, the activity at 0.001 µg/mL in assay [1] is 156%. In addition, the “Number of Surviving Mice” value in assay [3] (setting [6]) is recorded as 10 mice; in assay [3] (setting [7]) it was 9 mice; in assay [3] (setting [8]), 9 mice; in assay [3] (setting [9]) it was 8 mice; in assay [3] (setting [10]), 8 mice; in assay [3] (day 35, all controls 0), 8 mice. In addition, the “Number of Surviving Mice” value in assay [3] (day 40, all controls 0) amounted to 8 mice. In addition, the “Number of Blood Platelets” value in assay [4] is recorded as 19.8 ± 4.3 × 10^4 /μl; in assay [5], 113.7 ± 7.1 × 10^4 /μl.

In the case of `CCCCCCCC/C=C\CCCCCCCC(=O)N[C@@H](CO[C@H]1O[C@H](CO)[C@H](O)[C@H](O)[C@H]1O)[C@H](O)CCCCCCCCCCCCCCC` [Compound 29, (2S,3R)-1-(α-D-galactopyranosyloxy)-2-oleoylamino-3-octadecanol], the activity at 1 µg/mL in assay [1] turned out to be 865%. The activity at 0.1 µg/mL in assay [1] is 382%. In addition, the activity at 0.01 µg/mL in assay [1] worked out at 187%. For the same compound, the activity at 0.001 µg/mL in assay [1] is 97%. For the same compound, the “Number of Surviving Mice” value in assay [3] (setting [6]) turned out to be 10 mice; in assay [3] (setting [7]), 9 mice; in assay [3] (setting [8]) it was 8 mice; in assay [3] (setting [9]) it was 8 mice; in assay [3] (setting [10]), 8 mice; in assay [3] (day 35, all controls 0), 8 mice. Further, the “Number of Surviving Mice” value in assay [3] (day 40, all controls 0) worked out at 8 mice. Also, the “Number of Blood Platelets” value is listed as 18.1 ± 5.0 × 10^4 /μl in assay [4] and 86.3 ± 3.1 × 10^4 /μl in assay [5].

Turning to `CCCCCCCCCCCCCCCCCCCCCC[C@H](O)C(=O)N[C@@H](CO[C@H]1O[C@H](CO)[C@H](O)[C@H](O)[C@H]1O)[C@H](O)[C@H](O)CCCCCCCCCCCC(C)C` [Compound 30, (2S,3S,4R)-1-(α-D-galactopyranosyloxy)-2-[(S)-2-hydroxytetracosanoylamino]-16-methyl-3,4-heptadecanediol], the activity at 1 µg/mL in assay [1] was found to be 712%. Moreover, the activity at 0.1 µg/mL in assay [1] amounted to 293%. The activity at 0.01 µg/mL in assay [1] amounted to 105%. The activity at 0.001 µg/mL in assay [1] worked out at 92%. The “Number of Surviving Mice” value was 10 mice in assay [3] (setting [6]); 10 mice in assay [3] (setting [7]); 10 mice in assay [3] (setting [8]); 10 mice in assay [3] (setting [9]); 10 mice in assay [3] (setting [10]); 10 mice in assay [3] (day 35, all controls 0). The “Number of Surviving Mice” value in assay [3] (day 40, all controls 0) came to 10 mice. Also, the “Number of Blood Platelets” value is given as 22.5 ± 3.5 × 10^4 /μl in assay [4] and 106.2 ± 9.0 × 10^4 /μl in assay [5].

For `CCCCCCCCCCCCCCCCCCCCCCCC(=O)N[C@@H](CO[C@H]1O[C@H](CO)[C@H](O)[C@H](O)[C@H]1O)[C@H](O)[C@H](O)CCCCCCCCCCCC(C)C` [Compound 31, (2S,3S,4R)-1-(α-D-galactopyranosyloxy)-16-methyl-2-tetracosanoylamino-3,4-heptadecanediol], the activity at 1 µg/mL in assay [1] turned out to be 624%. Besides, the activity at 0.1 µg/mL in assay [1] worked out at 326%. For the same compound, in assay [1], the activity at 0.01 µg/mL stood at 104%. Also, the activity at 0.001 µg/mL in assay [1] was 101%. In addition, the “Number of Surviving Mice” value in assay [3] (setting [6]) came out at 10 mice; in assay [3] (setting [7]), 10 mice; in assay [3] (setting [8]), 9 mice; in assay [3] (setting [9]) it was 9 mice; in assay [3] (setting [10]) it was 9 mice; in assay [3] (day 35, all controls 0), 9 mice. In addition, in assay [3] (day 40, all controls 0), the “Number of Surviving Mice” value stood at 9 mice. Moreover, the “Number of Blood Platelets” value is listed as 27.7 ± 5.4 × 10^4 /μl in assay [4] and 108.0 ± 7.0 × 10^4 /μl in assay [5].

As to `CCCCCCCCCCCCC/C=C/[C@@H](O)[C@H](CO[C@H]1O[C@H](CO)[C@H](O)[C@H](O)[C@H]1O)NC(=O)CCCCCCCCCCCCC` [Compound 32, (2S,3R,4E)-1-(α-D-galactopyranosyloxy)-2-tetradecanoylamino-4-octadecen-3-ol], in assay [1], the activity at 1 µg/mL is 871%. Besides, the activity at 0.1 µg/mL in assay [1] came to 405%. In addition, in assay [1], the activity at 0.01 µg/mL came out at 151%. For the same compound, in assay [1], the activity at 0.001 µg/mL came to 115%. Also, the “Number of Surviving Mice” value is given as 10 mice in assay [3] (setting [6]); 9 mice in assay [3] (setting [7]); 4 mice in assay [3] (setting [8]); 3 mice in assay [3] (setting [9]); 3 mice in assay [3] (setting [10]); 3 mice in assay [3] (day 35, all controls 0). For the same compound, the “Number of Surviving Mice” value in assay [3] (day 40, all controls 0) came out at 3 mice. Besides, the “Number of Blood Platelets” value in assay [4] is 16.4 ± 3.2 × 10^4 /μl; in assay [5], 88.3 ± 4.2 × 10^4 /μl.
